Measurements from patent US20220315571A1 (Cytokinetics, Inc., priority 2019, published 2022).
Where two headings read alike, the source gives them in different places.

Legend:
myocytes = assay: Myocyte contractility assay (fractional shortening, edge detection); format: cell-based, Sprague-Dawley rats; conditions: 5 μM, adult rat myocytes, 5 min perfusion, 5 cells tested
Procedure: Adult male Sprague-Dawley rats were anesthetized and the hearts were quickly excised, rinsed and the ascending aorta was cannulated. Continuous retrograde perfusion was initiated on the hearts at a perfusion pressure of 60 cm H2O. Hearts were first perfused with a nominally Ca^2+-free modified Krebs solution of the following composition: 113 mM NaCl, 4.7 mM KCl, 0.6 mM KH2PO4, 0.6 mM Na2HPO4, 1.2 mM MgSO4, 12 mM NaHCO3, 10 mM KHCO3, 30 mM taurine, 5.5 mM glucose and 10 mM Hepes (all Sigma). This medium is not recirculated and is continually aerated with a 95% O2/5% CO2 mixture. […]
Aliquots of myocytes in Tyrode's buffer were placed in perfusion chambers (series 20 RC-27NE; Warner Instruments) complete with heating platforms. […] Contractility of the myocytes and contraction and relaxation velocities were then recorded using edge detection.
Five or more individual myocytes were tested per compound from two or more different myocyte preparations. […] These average transients were analyzed using the IonWizard software (IonOptix) to determine changes in diastolic length and fractional shortening. Fractional shortening was calculated as: ((resting length−length at peak contraction) divided by the resting length). The percent change in fractional shortening from baseline was calculated as: ((post-dose fractional shortening/basal fractional shortening)*100). […]

[1] = system: Rat Cardiac Contractility; assay: Echocardiography assessment of acute pharmacodynamic effect in rat cardiac contractility; format: in vivo, Sprague Dawley rats
Procedure: Assessment of in vivo cardiac function by echocardiography was performed in male Sprague Dawley rats under isoflurane (1-3%) anesthesia. 2-D M-mode images of the left ventricle were acquired in the parasternal long-axis view before, during, and after administration of compounds by continuous IV infusion or oral gavage. In vivo fractional shortening was determined by M-mode image analysis with the following calculation: ((End diastolic diameter—end systolic diameter)/end diastolic diameter×100). For continuous IV infusion experiments, three pre-dose baseline M-mode images were taken at 1 minute intervals prior to infusion of compound. Compounds were formulated in 50% Propylene Glycol (PG): 16% Captisol: 10% dimethylacetamide (DMA) and delivered via a jugular vein catheter at the rate of 1 mL/kg/h. During infusion, M-mode images were taken at 5 minute intervals. The infusion stopped when fractional shortening reached up to a 60% reduction from baseline. Blood samples were taken to determine the plasma concentration of the compounds. Data was reported as an estimated IC50 value, which is the concentration at which fractional shortening is 50% of the pre-dose baseline contractility.
For oral dosing studies, three pre-dose baseline M-Mode images were taken at 1 minute intervals prior to compound administration. […] Rats were lightly anesthetized for M-Mode echocardiography measurements at select time points over a 24 hour period. Different dose levels were evaluated. The compound effect on cardiac fractional shortening at the highest dose evaluated is presented below as a percent reduction of baseline fractional shortening (=100%).
Concurrent with echocardiography measurements, blood samples were taken to determine the corresponding compound plasma concentration.

[2] = Dynamic Vapor Sorption (DVS); format: physicochemical; conditions: 5-90% relative humidity (RH) range, 25° C.
Procedure: DVS analyses were carried out TA Instruments Q5000 Dynamic Vapor Sorption analyzer. The instrument was calibrated with standard weights and a sodium bromide standard for humidity. Samples were analyzed at 25° C. with a maximum equilibration time of 60 minutes in 10% relative humidity (RH) steps from 5 to 95% RH (adsorption cycle) and from 95 to 5% RH (desorption cycle).
Polymorphic Form I of (R)-N-(5-(5-ethyl-1,2,4-oxadiazol-3-yl)-2,3-dihydro-1H-inden-1-yl)-1-methyl-1H-pyrazole-4-carboxamide was analyzed by XRPD, DSC, TGA, and DVS. […] As shown in the TGA graph, a weight loss of 0.2% below 200° C., was observed.

[3] = Polymorph screening, heat/humidity exposure of Form I (XRPD); format: physicochemical
Procedure: Polymorphic Form I of (R)-N-(5-(5-ethyl-1,2,4-oxadiazol-3-yl)-2,3-dihydro-1H-inden-1-yl)-1-methyl-1H-pyrazole-4-carboxamide was mixed with various solvents under various conditions. Samples generated were analyzed by XRPD.

[4] = Competitive slurry experiments between Form I and Form IV; format: physicochemical
Source text: The results of the competitive slurry experiments are provided below in Table 7.

CCc1nc(-c2ccc3c(c2)CC[C@H]3NC(=O)c2cnn(C)c2)no1 [(R)-N-(5-(5-ethyl-1,2,4-oxadiazol-3-yl)-2,3-dihydro-1H-inden-1-yl)-1-methyl-1H-pyrazole-4-carboxamide]
% FS (% reduction from baseline) ± SEM (myocytes): 67.4 ± −5.8% | FS (% reduction from baseline) at 1-2 h post dose (Mean ± S.D.) ([1]; 2 mg/kg single dose by oral gavage, rat, 1-2 h post dose): 43 ± 9% | FS (% reduction from baseline) at 4 h post dose (Mean ± S.D.) ([1]; 2 mg/kg single dose by oral gavage, rat, 4 h post dose): 31 ± 9% | IC50 ([1]; continuous IV infusion, rats under isoflurane, read-out: estimated IC50 (plasma concentration at which fractional shortening is 50% of pre-dose baseline contractility), Mean±S.D.): 7.2 ± 0.2 µM | estimated IC10 (plasma concentration, fractional shortening) ([1]; oral dosing studies, rat): 0.8 µM | IC50 ([1]; oral dosing studies, rat, read-out: estimated IC50 (plasma concentration, fractional shortening)): 7.9 µM

CCc1nc(-c2ccc3c(c2)CC[C@H]3NC(=O)c2cnn(C)c2)no1 [Form I, (R)-N-(5-(5-ethyl-1,2,4-oxadiazol-3-yl)-2,3-dihydro-1H-inden-1-yl)-1-methyl-1H-pyrazole-4-carboxamide]
moisture uptake as determined by DVS [2]: 0.60 % w/w | XRPD form after heat/humidity exposure ([3]; none, RT, 0% RH): Form I | XRPD form after heat/humidity exposure ([3]; water vapor, 40° C., 75% RH): Form I | XRPD form after heat/humidity exposure ([3]; water vapor, RT, 59% RH): Form I | XRPD form after heat/humidity exposure ([3]; water vapor, RT, 75% RH): Form I | XRPD form after heat/humidity exposure ([3]; water vapor, RT, 97% RH): Form I

CCc1nc(-c2ccc3c(c2)CC[C@H]3NC(=O)c2cnn(C)c2)no1 [Form IV, (R)-N-(5-(5-ethyl-1,2,4-oxadiazol-3-yl)-2,3-dihydro-1H-inden-1-yl)-1-methyl-1H-pyrazole-4-carboxamide]
relative stability of forms in competitive slurry ([4]; temperature range 2-60° C.): more stable than Form I

CCc1nc(-c2ccc3c(c2)CC[C@H]3NC(=O)c2cnn(C)c2)no1 [Forms I and IV, (R)-N-(5-(5-ethyl-1,2,4-oxadiazol-3-yl)-2,3-dihydro-1H-inden-1-yl)-1-methyl-1H-pyrazole-4-carboxamide]
XRPD form after competitive slurry ([4]; ACN, 2 ° C.): Form IV | XRPD form after competitive slurry ([4]; ACN, 25 ° C.): Form IV | XRPD form after competitive slurry ([4]; ACN, 60 ° C.): Form IV | XRPD form after competitive slurry ([4]; acetone, 2 ° C.): Form IV | XRPD form after competitive slurry ([4]; acetone, 25 ° C.): Form IV | XRPD form after competitive slurry ([4]; acetone, 60 ° C.): Form IV
